Experimental data published in US7060790B1, “Peptides and nucleic acids derived from Eisenia foetida and the use thereof” (Vlaams Interuniversitair Instituut voor Biotechnologie VZW, priority 1997, dated 2006).

Assays:
[1] = tested on: Trypanosoma brucei AnTat 1.1E; test: Trypanolytic assay on T. brucei; assay type: cell-based
Protocol: Pleiomorphic and monomorphic Trypanosoma brucei AnTat 1.1E clone were provided by Dr N. Van Meirvenne (Institute of Tropical Medicine, Antwerp, Belgium).
(§1) Purified parasites were resuspended at 4×10^6/ml PSG (PBS, consisting of 2.13 g NaCl, 8.45 g Na2HPO4 and 0.43 g NaH2PO4 per liter, supplemented with 1% glucose). […] of suspension were mixed with […] of different concentrations of CF, CCF-1 or TNF-α in 96-well culture plate. Quantification of the trypanolysis was based on the determination of parasite viability using Ethidium homodimer (EthD-1, Molecular Probes). EthD-1 is excluded by intact plasma membrane of live parasites. However, it enters the cells with damaged membrane and undergoes enhancement of fluorescence on binding nucleic acids, thereby producing a bright red fluorescence in dead cells. Briefly, after 4.5 hrs incubation at 30° C., […] of […] EthD-1 was added to the wells. The mean fluorescence intensity of triplicate cultures (±SD) was recorded 30 min later in a cytofluorimeter (Cytofluor II, PerSeptive Biosystems) using excitation/emission filters at 530±25/645±40 nm. A set of control was included in each experiments: (A) a parasite-free control to account for possible background fluorescence (B) a control of 100% lysis, prepared by treating the parasites with […] 2% saponin for about 10 min before adding EthD-1 (C) a control in which the trypanolytic component was replaced by PSG was considered as 0% lysis. (B) and (C) were used to build a standard curve and the % lysis in test samples was estimated by linear regression. In some assays parasite lysis was assessed by light microscopy counting the remaining parasites. Background lysis, i.e. lysis of trypanosomes within 5 hrs incubation at 30° C. in absence of lytic molecules, never exceeded 5–10%.

T. cruzi = test: Trypanolytic activity on T. cruzi; assay type: cell-based; settings: trypomastigote versus epimastigote forms
Protocol: as §1, with “(B) and (C) were used to build a standard curve and the % lysis in test samples was estimated by linear regression.” left out, “Background lysis, i.e. lysis of trypanosomes within 5 hrs incubation at 30° C. in absence of lytic molecules, never exceeded 5–10%.” left out

anti-CCF-1 mAb 12C9 = test: Dot spot assay of tryptic peptides with anti-CCF-1 mAb; assay type: binding
Protocol: The separated peptides obtained from HPLC purification of the tryptic digest of CCF-1 were analyzed for reactivity with the anti-CCF-1 mAb via a dot spot assay. […] The obtained sequence is shown in SEQ ID NO:1.

[2] = tested on: trypanolytic activity (T. cruzi) of CF; test: Inhibition of the trypanolytic activity (T. cruzi) of CF by antibodies and carbohydrates; assay type: cell-based
Protocol: as §1
(§2) For inhibition experiments CCF-1 or TNF-α were pre-incubated 1 hr at 30° C. with 10 […] of antibodies (anti-CCF1, anti-TIP or irrelevant mAb) or sugars (chitobiose, cellobiose, Sigma). All experiments were repeated at least 3 times.

TNF-α = molecular target: T1, TNF-α (Mus musculus, UniProt P06804); test: Inhibition of TNF-α mediated trypanolysis (T. brucei) by antibodies and carbohydrates; assay type: cell-based; settings: inhibitor 10 μg/ml, TNF-α 1.000 U/ml
T1 sequence (P06804 80-235 limits assumed): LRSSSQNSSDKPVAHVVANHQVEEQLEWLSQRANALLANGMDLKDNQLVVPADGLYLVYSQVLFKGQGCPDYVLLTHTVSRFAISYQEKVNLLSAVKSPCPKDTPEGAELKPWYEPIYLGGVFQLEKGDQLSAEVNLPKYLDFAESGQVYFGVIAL
Protocol: as §1, §2

CCF-1 [3] = test: Inhibition of CCF-1 mediated trypanolysis (T. brucei) by antibodies and carbohydrates; assay type: cell-based, Eisenia foetida; settings: for CCF-1 mediated trypanolysis % Inhibition / CCF-1 mediated trypanolysis % Lysis: inhibitor 10 μg/ml, CCF-1 4 μg/ml
Protocol: as §1, §2

CCF-1 [4] = test: Inhibition of the cytolytic activity of CCF-1 (L929) by antibodies and carbohydrates; assay type: cell-based, Eisenia foetida
Protocol: To test whether the cytolytic activity of CCF-1 is mediated by a similar or a different domain as that one utilized for the trypanolytic activity, CCF-1 was preincubated with N,N′-diacetylchitobiose or anti-TNF/TIP antibodies and tested in the L-929 lysis assay (21). […] This is in sharp contrast to the cytolytic activity of TNF-α that is not influenced by anti-TNF/TIP antibodies nor by N,N′-diacetylchitobiose.

[5] = inhibitor 10 μg/ml, CF final dilution 1:4.000
[6] = Experiment 1, inhibitor 10 μg/ml, CCF-1 4 μg/ml, L929

Molecule: TNF-α
- TNF-α mediated trypanolysis % Lysis ([1]; TNF-α 1.000 U/ml, no inhibitor): 41%
- binding to chitobiose / binding capacity towards N,N′-diacetylchitobiose (Binding to chitobiose): bind to immobilized chitobiose
- T. cruzi forms on which trypanolytic activity was recorded (T. cruzi): only be recorded on the trypomastigote but not the epimastigote forms

Molecule: NH2-SGEIDIIETIGNR-COOH (chain 1 H-SGEIDIIETIGNR-OH; chain 2 H-SGEIDIIETIGNR-OH; listed as Eisenia foetida) [CCF-1/TIP]
- trypanolytic activity on T. brucei (in words) [1]: trypanolytic in a time- and dose-dependent way
- trypanolytic activity compared with the TNF/TIP peptide ([1]; FIG. 1): reproducibly more trypanolytic than the TNF/TIP peptide
- reactivity with the anti-CCF-1 mAb 12C9 in dot spot assay (anti-CCF-1 mAb 12C9): weakly positive

Molecule: CC(=O)N[C@H]1[C@H](O[C@H]2[C@H](O)[C@@H](NC(C)=O)C(O)O[C@@H]2CO)O[C@H](CO)[C@@H](O)[C@@H]1O (stereo partly shown) [N,N′-diacetylchitobiose]
- inhibition of the T. cruzi lytic activity of CF (in words) [2]: substantially decreased
- CF-1 mediated trypanolysis % Inhibition [2, 5]: 70%
- CF-1 mediated trypanolysis % Lysis [2, 5]: 19%
- TNF-α mediated trypanolysis % Inhibition (TNF-α): 100%
- TNF-α mediated trypanolysis % Lysis (TNF-α): 0%
- inhibition of the trypanolytic activity of CCF-1 (in words) (CCF-1 [3]): found to inhibit also the trypanolytic activity of CCF-1
- CCF-1 mediated trypanolysis % Inhibition (CCF-1 [3]): 73%
- CCF-1 mediated trypanolysis % Lysis (CCF-1 [3]): 3%
- inhibition of the trypanolytic activity of rCCF-1 (in words) (CCF-1 [3]; rCCF-1, FIG. 3A, 3B): inhibits potently
- inhibition of the interaction of CCF-1 with L-929 cells (in words) (CCF-1 [4]; CCF-1 preincubated with inhibitor): completely inhibited
- CCF-1 mediated cytolysis % Inhibition (CCF-1 [4]; [6]): 100%
- CCF-1 mediated cytolysis % Lysis (CCF-1 [4]; [6]): 0%

Molecule: O=C[C@H](O)[C@@H](O)[C@H](O[C@@H]1O[C@H](CO)[C@@H](O)[C@H](O)[C@H]1O)[C@H](O)CO [Cellobiose]
- inhibition at 10 µg/mL ([2]; Trypanosoma cruzi, inhibitor 10 μg/ml, CF final dilution 1:4.000, read-out: CF-1 mediated trypanolysis % Inhibition): 0%
- CF-1 mediated trypanolysis % Lysis [2, 5]: 67%
- TNF-α mediated trypanolysis % Lysis (TNF-α): 41%
- inhibition at 10 µg/mL (TNF-α): 0%
- inhibition of the trypanolytic activity of CCF-1 (in words) (CCF-1 [3]): does not influence the trypanolytic activity of CCF-1
- CCF-1 mediated trypanolysis % Inhibition (CCF-1 [3]): 0%
- CCF-1 mediated trypanolysis % Lysis (CCF-1 [3]): 49%
